We go through one compound from PMC11796354, “Autoinducer-2 enhances the defense of Vibrio furnissii against oxidative stress and DNA damage by modulation of c-di-GMP signaling via a two-component system” (mBio, 2025).

This test addresses AsrK (vfu_B00258). In words: ITC in borate-depleted buffer; also inhibits autokinase activity of purified full-length AsrK. The format is binding, Vibrio furnissii.

Regarding `CC(=O)C(=O)[C@@H](O)CO` [DPD, 4,5-dihydroxy-2,3-pentanedione], the Kd (in general, the equilibrium constant for the complex coming apart) amounted to 38 ± 4 nM.
